Reference: EPA's ToxValDB 9.5 (doi:10.2903/j.efsa.2009.333r)
In brackets after ≈: the same amount, converted by molar mass.

How the values were obtained:
Colinus virginianus = conditions: for LD50: acute, oral, mortality
Oryctolagus sp. = conditions: developmental; development
Tagia sp. = conditions: acute; duration: 14 days; mortality
Homo sapiens = conditions: clinical; oral; M/F; clinical chemistry
Rattus norvegicus = conditions: for NOAEL: clinical chemistry
Apis mellifera = conditions: acute; duration: 48 hours; dermal; mortality
Oncorhynchus mykiss = conditions: chronic/long-term; duration: 97 days; growth
Daphnia magna = conditions: chronic/long-term; duration: 21 days; reproduction
Gasterosteus aculeatus = conditions: acute; duration: 96 hours; mortality
Aphidius rhopalosiphi = test: LR50; higher = less toxic; conditions: acute; duration: 48 hours; mortality

| SMILES | LD50 (Colinus virginianus; diet) | LD50 (Colinus virginianus) [mg/kg] | NOAEL (Oryctolagus sp.) [mg/kg-day] | LC50 (Tagia sp.) [mg/kg] | NOAEL (Homo sapiens) [mg/kg-day] | LD50 (Rattus norvegicus; acute, oral, F, mortality) [mg/kg] | NOAEL (Rattus norvegicus; chronic, duration: 2 years) [mg/kg-day] | NOAEL (Rattus norvegicus; subchronic, duration: 90 days, oral) [mg/kg-day] | LD50 (Apis mellifera) [µg/piece] | NOEC (Oncorhynchus mykiss) [mg/L] | NOEC (Daphnia magna) [mg/L] | LC50 (Gasterosteus aculeatus) [µg/mL] | NOEC (Colinus virginianus; reproduction developmental) [mg/kg-day] | LR50 (Aphidius rhopalosiphi) [g/ha] |
| --- | --- | --- | --- | --- | --- | --- | --- | --- | --- | --- | --- | --- | --- | --- |
| CCOC(=O)CC(SP(=O)(OC)OC)C(=O)OCC (stereo unspecified) [Malaoxon] | 334 mg/kg | 43 |  |  |  |  |  |  |  |  |  |  |  |  |
| CCOC(=O)CC(SP(=S)(OC)OC)C(=O)OCC (stereo unspecified) [Malathion] | 554 mg/kg-day | 359 | 25 | 613 | > 15 | 1780 | 29 | 34.4 | 0.16 | 0.021 | 6e-05 | 0.022 (≈ 0.0666 µM) | 13.5 | 0.0612 |
